In the oligonucleotide strings, read from the 5' end, every base follows the letter of its sugar. An asterisk marks phosphorothioate; unmarked linkages are phosphodiester. Other units and linkages are bracketed, terminal groups are in braces. A string of capitals states the bases alone. {NAG37} = tridentate N-acetyl-galactosamine targeting ligand, structure (NAG37)s; [invAb] = inverted abasic unit; m = 2'-O-methyl; f = 2'-fluoro
Legend:
[1] = test system: ANGPTL3 protein; test: Example 4: serum ANGPTL3 protein by ELISA in mice; assay type: in vivo, C57bl/6 mice; settings: for Avg ANGPTL3 (Average ANGPTL3 Protein Normalized to Pre-Treatment and Control): 1.0 mg/kg single subcutaneous dose on day 1, serum, female C57bl/6 mice
Method: (§1) To assess the in vivo activity of ANGPTL3 RNAi agents that are designed to target additional positions on the ANGPTL3 gene, six- to eight-week-old female C57bl/6 mice were used. Pre-dose serum samples were taken at day −1 after a four hour fast. At day 1, each mouse was given a single subcutaneous administration of 200 μl containing either 1 mg/kg (mpk) or 0.5 mg/kg (mpk) of an ANGPTL3 RNAi agent in D5W (dextrose in 5% water), or control (D5W) with no RNAi agent, according to the dosing groups recited in Table 17.
(§2) Each of the RNAi agents included a modified sequence and an N-acetyl-galactosamine-containing targeting ligand conjugated to the 5′ terminal end of the sense strand. (See Tables 3, 4, and 5 for modified sequences and targeting ligand structures). The injections were performed between the skin and muscle (i.e. subcutaneous injections) into the loose skin over the neck and shoulder area. Three (3) mice in each group were tested (n=3). Serum was collected on days 8, 15, 22, 29, and day 43 (Groups 1-3, 9, and 11-13 only). Mice were fasted for four hours prior to each collection. ANGPTL3 protein levels in serum were measured by ELISA assay (R&D Systems), according to the manufacturer's recommendations. Triglycerides, high-density lipoprotein (HDL), and total cholesterol in serum were measured on a Cobas® Integra 400 (Roche Diagnostics), according to the manufacturer's recommendations.
(§3) The ANGPTL3 protein levels, triglyceride levels, HDL levels, and total cholesterol levels for each animal were normalized. For normalization, the level of ANGPTL3 protein, triglyceride, HDL, and total cholesterol, respectively, for each animal at a time point, was divided by the pre-treatment level of expression in that animal (in this case at day −1) to determine the ratio of expression “normalized to pre-treatment.” Expression at a specific time point was then normalized to the D5W control group by dividing the “normalized to pre-treatment” ratio for an individual animal by the mean “normalized to pretreatment” ratio of all mice in the D5W control group.

[2] = test system: ANGPTL3 gene; test: Example 4: serum triglycerides in mice; assay type: in vivo
Method: as §1, §2, §3

[3] = test system: ANGPTL3 gene; test: Example 4: serum total cholesterol in mice; assay type: in vivo, C57bl/6 mice
Method: as §1, §2, §3

[4] = test system: ANGPTL3 gene; test: Example 4: serum HDL in mice; assay type: in vivo, C57bl/6 mice
Method: as §1, §2, §3

[5] = test system: ANGPTL3 gene; test: Example 4: serum LDL in mice; assay type: in vivo, C57bl/6 mice; settings: for Avg LDL, normalized to pre-treatment and control: 1.0 mg/kg single SC injection on day 1, serum, n=3
Method: as §1, §2, §3

[6] = Day 8, 1.0 mg/kg single SC injection on day 1, n=3
[7] = Day 15, 1.0 mg/kg single SC injection on day 1, n=3
[8] = Day 22, 1.0 mg/kg single SC injection on day 1, n=3
[9] = Day 29, 1.0 mg/kg single SC injection on day 1, n=3
[10] = Day 43, 1.0 mg/kg single SC injection on day 1, n=3

## AD05487: RNAi agent duplex: antisense AM07233-AS, sense AM07232-SS (antisense mU*fA*mC*fUmGfAmUfCmAfAmAfUmAfUmGfUmUfGmAfG*mU; sense {NAG37}*[invAb]*mAmCmUmCmAmAmCmAfUfAfUmUmUmGmAmUmCmAmGmUmA*[invAb])
[1]; Day 8
  Avg ANGPTL3 (Average ANGPTL3 Protein Normalized to Pre-Treatment and Control): 0.173
[1]; Day 15
  Avg ANGPTL3 (Average ANGPTL3 Protein Normalized to Pre-Treatment and Control): 0.170
[1]; Day 22
  Avg ANGPTL3 (Average ANGPTL3 Protein Normalized to Pre-Treatment and Control): 0.138
[1]; Day 29
  Avg ANGPTL3 (Average ANGPTL3 Protein Normalized to Pre-Treatment and Control): 0.226
[1]; Day 43
  Avg ANGPTL3 (Average ANGPTL3 Protein Normalized to Pre-Treatment and Control): 0.477
[1]; day 15, single 1 mg/kg subcutaneous, C57bl/6 mice
  ANGPTL3 protein normalized to pre-treatment and control: 0.170
[1]; day 22, single 1 mg/kg subcutaneous, C57bl/6 mice
  ANGPTL3 protein normalized to pre-treatment and control: 0.138
[1]; days 15 and 22, single 1 mg/kg subcutaneous, C57bl/6 mice
  knockdown of ANGPTL3 protein: ~75%
[2]; Day 8, 1.0 mg/kg single subcutaneous dose on day 1, female C57bl/6 mice
  Avg TG (Average Triglycerides Normalized to Pre-Treatment and Control): 0.776
[2]; Day 15, 1.0 mg/kg single subcutaneous dose on day 1, female C57bl/6 mice
  Avg TG (Average Triglycerides Normalized to Pre-Treatment and Control): 0.912
[2]; Day 22, 1.0 mg/kg single subcutaneous dose on day 1, female C57bl/6 mice
  Avg TG (Average Triglycerides Normalized to Pre-Treatment and Control): 0.761
[2]; Day 29, 1.0 mg/kg single subcutaneous dose on day 1, female C57bl/6 mice
  Avg TG (Average Triglycerides Normalized to Pre-Treatment and Control): 0.556
[2]; Day 43, 1.0 mg/kg single subcutaneous dose on day 1, female C57bl/6 mice
  Avg TG (Average Triglycerides Normalized to Pre-Treatment and Control): 0.757
[3]; [6]
  Avg Total Chol, normalized to pre-treatment and control: 0.728
[3]; [7]
  Avg Total Chol, normalized to pre-treatment and control: 0.944
[3]; [8]
  Avg Total Chol, normalized to pre-treatment and control: 0.697
[3]; [9]
  Avg Total Chol, normalized to pre-treatment and control: 0.560
[3]; [10]
  Avg Total Chol, normalized to pre-treatment and control: 0.923
[4]; [6]
  Avg HDL, normalized to pre-treatment and control: 0.716
[4]; [7]
  Avg HDL, normalized to pre-treatment and control: 0.918
[4]; [8]
  Avg HDL, normalized to pre-treatment and control: 0.658
[4]; [9]
  Avg HDL, normalized to pre-treatment and control: 0.745
[4]; [10]
  Avg HDL, normalized to pre-treatment and control: 0.934
[5]; Day 8
  Avg LDL, normalized to pre-treatment and control: 0.916
[5]; Day 15
  Avg LDL, normalized to pre-treatment and control: 1.125
[5]; Day 22
  Avg LDL, normalized to pre-treatment and control: 0.845
[5]; Day 29
  Avg LDL, normalized to pre-treatment and control: 0.744
[5]; Day 43
  Avg LDL, normalized to pre-treatment and control: 0.989
[5]; day 29, single 1 mg/kg subcutaneous, C57bl/6 mice
  LDL levels reduced: ~20%
